One series concerns human neutrophils. In words: NETosis assay (free DNA, PicoGreen). As to conditions: peptide 2 mM; neutrophils stimulated with PMA and H2O2. The series is classed as cell-based. As to the method: Free DNA as a marker for NET formation was measured by PicoGreen as previously described. Briefly, 2.0×10^6 human neutrophils in 96-well plates were stimulated with 12 nM PMA and 0.05% H2O2 in RPMI with or without the indicated peptide variants (2 mM) for 2.5 hr in a 37° C. humified incubator supplemented with 5% CO2, allowing NETosis to occur. Neutrophils in RPMI alone served as a negative control. Fifty units of […] (Fisher) were added to each well to allow for digestion of released extracellular DNA for 10 min at 37° C. The preparation was then aliquoted into an adjacent well and mixed 1:1 with prepared PICO green reagent (Fisher). The fluorescence was then quantified on a BioTek microplate reader at excitation 485 nm/emission 528 nm.

The nature of series [1]: ABO incompatibility hemolytic assay of complement activity (CH50-type). The series is classed as cell-based, human. As to conditions: peptide 0.8 mg/ml (~0.5 mM); read-out: decrease of ABO hemolysis compared to PA-I8Sar. The procedure, abridged:
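Type AB human erythrocytes (5.0×10^7) incubated with 15% (final) type O human serum and 0.5 mM peptide in GVBS^++, 1 h at 37 °C. Hemolysis read as supernatant absorbance at 412 nm, expressed as percent of the serum-plus-RBC positive control; means of three independent experiments ±SEM.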

Series [2] is classed as in vivo, rat. To be noted: IV in Wistar rats, 20, 200, 400 mg/kg; 0.5-1440 minute. As to the method:
(§1) Male Wistar rats with indwelling jugular catheters were administered PA-0117, -0127, -0130, and -0133 with groups of three animals receiving 20, 200 and 400 mg/kg of the compound as a single, bolus, IV infusion. A control group of rats received an infusion of saline IV. At various time points after infusion (0.5, 2, 5, 20, 60, 120, 240, 480, 1440 minute) an aliquot of blood was drawn and plasma isolated and frozen at −70° C. pending analysis. Animals were sacrificed after the terminal blood draw and a gross necropsy performed.
(§2) PA-0117 could not be analyzed as no functional complement activity was obtained from the plasma samples. […] PA-0117 was analyzed in a C1q target acquisition assay (C1q binding assay) as described in Example 1 (FIG. 9). […] PA-0127 and -0130 levels were determined by coating the plate with the plasma samples and directly detecting the peptides by rabbit antibody raised against PA-0020 (peptide sequence […]; SEQ ID NO: 57) (FIGS. 10B and 11B). […] PA-0133 could not be detected by the available antibodies.
PA-0117: The hemolysis assay results were not useable (few pre-bleeds had any activity, and only a few other random samples had any complement activity). The PK assay for PA-0117 was performed by sandwich ELISA (FIG. 9). PA-0127: The results of the hemolysis assay are discussed herein (see also FIG. 10A). […] PA-0130: The results of the hemolysis assay are discussed herein (see also FIG. 11A). […] PA-0133: The results of the hemolysis assay are discussed herein (FIG. 12).

Another series deals with complement activity. In words: Hemolytic assay of plasma after IV infusion into rats. The class given is in vivo, rat. As to conditions: IV in Wistar rats; early time points at the highest dose. How it is done: as §1, §2
A further series has as its target T1, PD-1/PD-L1 interaction (Homo sapiens, UniProt Q15116+Q9NZQ7).
T1 construct: host or cells: PD-1 effector cells; PD-L1 aAPC/CHO-K1 cells
In words: PD-1/PD-L1 Blockade Bioassay (Promega). The series is classed as cell-based. As to conditions: increasing peptide concentrations. How it is done:
PD-1 effector cells were incubated with PD1-L1 aAPC cells in the absence or presence of increasing concentrations of anti-PD-1 antibody (positive control) and select PIC1 peptides. Luminescence was detected in luminometer plate reader.
To assess if PIC1 peptides could block PD-1 inhibitory activity in a cell-based assay, select peptides were screened in the PD-1/PD-L1 Blockade Bioassay (Promega). The PD-1/PD-L1 Blockade Bioassay is a biologically relevant MOA-based assay that can be used to measure the potency and stability of antibodies and other biologics designed to block the PD-1/PD-L1 interaction. This bioluminescent cell-based assay is used to measure the potency and stability of molecules targeting PD-1 and consists of two genetically engineered cell lines: aAPC/CHO-K1 Cells are CHO-K1 cells with an engineered cell surface protein designed to activate cognate TCRs in an antigen-independent manner. When the two cell types are co-cultured, the PD-1/PD-L1 interaction inhibits TCR signaling and NFAT-mediated luciferase activity. Addition of an inhibitory molecule that blocks either PD-1 or PD-L1 releases the inhibitory signal and results in TCR signaling and NFAT-mediated luciferase activity.

The subject of series [3] is purified human Pan T-cells. In words: T-cell exhaustion protocol (Dynabeads re-stimulation). The class given is cell-based. To be noted: peptides 2 mg/ml at each stimulation. How it is done: Purified human pan-T-cells were subject to stimulation with Dynabeads every 48 hours over the period of 8 days with cells also receiving PIC1 peptides (2 mg/ml) at each stimulation. Cells not receiving Dynabeads were run in parallel to assess background levels of Caspase 3/7 signal. At the eighth day, cells were harvested and the levels of Caspase 3/7 determined by ELISA.
Purified human pan-T-cells were subject to stimulation with Dynabeads every 48 hours over the period of 8 days with cells also receiving PIC1 peptides (2 mg/ml) at each stimulation. Cell supernatants were collected at each stimulation and levels of IL-2 and IFN-gamma assayed by ELISA.
T-cell exhaustion is a form of T-cell dysfunction that occurs in cancer. It is defined by poor effector function, reduction in cytokine release (e.g., IL-2, TNF-alpha, IFN-gamma), sustained expression of inhibitory receptors (e.g., PD-1, LAG-3, CD244, CD160) with the progressive loss of effector function due to overstimulation. Exhaustion prevents optimal control of tumor growth. Exhausted T cells are prevalent in the tumor microenvironment (TME) and can lead to T-cell apoptosis. T-cell exhaustion is reversible, and pharmaceutical inhibition of T-cell exhaustion has been considered a promising strategy by many cancer researchers. To ascertain if PIC1 peptides could reverse T-cell exhaustion and increase T cell viability and effector function, a T-cell exhaustion protocol was developed. To induce T-cell exhaustion, purified human Pan T-cells were stimulated with T-Activator CD3/CD28 Dynabeads and cells are washed and re-stimulated every 48 hours. PIC1 peptides were added to the cells after each stimulation with Dynabeads. After three to four stimulations cells were harvested for readouts which consisted of assessing T-cell apoptosis by measuring Caspase 3/7 levels and production of cytokines IL-2 and IFN-gamma which is indicative of T-cell functionality. […] To further evaluate if PIC1 peptides could restore T-cell functionality in cells that have undergone the exhaustion protocol, the inventors next assessed production of cytokines IL-2 and IFN-gamma. Supernatants from the cells after each stimulation were collected and the cytokines measured by ELISA. […] The lower level of IFN-gamma signal compared to IL-2 was consistently seen in this assay.

For a further series, the target named is T2, CTLA-4 (Homo sapiens, UniProt P16410).
T2 sequence (P16410 36-223): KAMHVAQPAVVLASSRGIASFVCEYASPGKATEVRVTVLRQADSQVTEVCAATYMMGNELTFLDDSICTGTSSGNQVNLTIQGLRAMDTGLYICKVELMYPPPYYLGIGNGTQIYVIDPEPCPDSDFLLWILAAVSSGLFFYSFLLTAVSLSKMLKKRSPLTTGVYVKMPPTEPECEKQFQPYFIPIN
Description: CTLA-4 Blockade Bioassay (Promega). The class given is cell-based. Set-up: host or cells: Jurkat T cells (CTLA-4 effector cells); aAPC/Raji cells. To be noted: increasing concentrations; listed as RLS-0130. As to the method:
CTLA-4 effector cells were incubated with aAPC/Raji Cells in the absence or presence of increasing concentrations of anti-CTLA-4 antibody (positive control), RLS-0127*, RLS-0130, RLS-0156, RLS-0170 and RLS-0174. Luminescence was detected in luminometer plate reader.
To assess if PIC1 peptides could block CTLA-4 inhibitory activity in a cell-based assay, select peptides were screened in the CTLA-4 Blockade Bioassay (Promega). This bioluminescent cell-based assay is used to measure the potency and stability of molecules targeting CTLA-4 and consists of two genetically engineered cell lines: CTLA-4 effector cells: Jurkat T cells expressing human CTLA-4 and a luciferase reporter driven by a native promoter which responds to TCR/CD28 activation and aAPC/Raji Cells: Raji cells expressing an engineered cell surface protein designed to activate cognate TCRs in an antigen-independent manner and endogenously expressing CTLA-4 ligands CD80 and CD86. When the two cell types are co-cultured, CTLA-4 competes with CD28 for their shared ligands, CD80 and CD86 and thus inhibits CD28 pathway activation and promoter-mediated luminescence. Addition of a molecule that blocks the interaction of CTLA-4 with its ligands CD80 and CD86 results in promoter-mediated luminescence.

For series [4] the following is noted: as described in U.S. Pat. No. 10,005,818; cited from earlier work.

“Also recorded” adds a separate entry of the source. Peptide text beside a SMILES is read from it.

T1 sequence (Q15116 25-288): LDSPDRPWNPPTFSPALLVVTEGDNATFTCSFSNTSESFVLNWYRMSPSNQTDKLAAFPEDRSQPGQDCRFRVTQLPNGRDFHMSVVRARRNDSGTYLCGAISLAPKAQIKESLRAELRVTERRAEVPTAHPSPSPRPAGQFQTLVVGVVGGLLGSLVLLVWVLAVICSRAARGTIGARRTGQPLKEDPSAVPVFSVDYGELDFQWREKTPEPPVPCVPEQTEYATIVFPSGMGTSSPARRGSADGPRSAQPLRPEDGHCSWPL
T1 sequence (Q9NZQ7 19-290): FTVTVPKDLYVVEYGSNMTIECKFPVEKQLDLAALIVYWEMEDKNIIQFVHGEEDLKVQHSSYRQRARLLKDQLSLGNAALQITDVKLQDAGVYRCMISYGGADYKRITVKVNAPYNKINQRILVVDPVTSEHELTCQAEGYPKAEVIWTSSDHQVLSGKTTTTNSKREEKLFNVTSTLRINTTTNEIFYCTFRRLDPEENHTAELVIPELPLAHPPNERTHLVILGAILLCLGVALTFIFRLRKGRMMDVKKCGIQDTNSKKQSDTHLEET

`CC[C@H](C)[C@H](N)C(=O)N[C@@H](C)C(=O)N[C@@H](CC(C)C)C(=O)N[C@H](C(=O)N[C@@H](CC(C)C)C(=O)N[C@@H](CCC(=O)O)C(=O)N1CCC[C@H]1C(=O)N(C)CC(=O)N[C@H](CS)C(=O)N[C@@H](CS)C(=O)N[C@@H](CCC(N)=O)C(=O)N[C@@H](CCC(=O)O)C(=O)N[C@@H](CCCNC(=N)N)C(=O)N[C@@H](C)C(=O)N[C@@H](C)C(=O)O)[C@@H](C)CC` [PA-0127, IALILEP(Sar)dCCQERAA] (HELM PEPTIDE1{I.A.L.I.L.E.P.[Sar].[dC].C.Q.E.R.A.A}$$$$V2.0): the “reduction of free DNA (marker of NETosis)” value (shortened to “reduction of free DNA”) in the series on human neutrophils is on record as “did not reduce levels of free DNA; also recorded: did not show a reduction in free DNA”. Moreover, in series [1], the decrease in ABO hemolysis compared to reference peptide was 20%. Besides, the “peptide level in plasma over time” value in series [2] is recorded as “increased binding was observed at early time points with diminished signal at later time points”. Moreover, in the series on complement activity, the “inhibition of complement activity in the hemolytic assay of rat plasma” value is listed as “inhibition of complement activity”.

Take `CC[C@H](C)[C@H](N)C(=O)N[C@@H](C)C(=O)N[C@@H](CC(C)C)C(=O)N[C@H](C(=O)N[C@@H](CC(C)C)C(=O)N[C@@H](CCC(=O)O)C(=O)N1CCC[C@H]1C(=O)N(C)CC(=O)N[C@@H](CS)C(=O)N[C@@H](CS)C(=O)N[C@@H](CCC(N)=O)C(=O)N[C@H](CCC(=O)O)C(=O)N[C@@H](CCCNC(=N)N)C(=O)N[C@@H](C)C(=O)N[C@@H](C)C(=O)O)[C@@H](C)CC` [PA-0130, IALILEP(Sar)CCQdERAA] (HELM PEPTIDE1{I.A.L.I.L.E.P.[Sar].C.C.Q.[dE].R.A.A}$$$$V2.0): the “reduction of free DNA” value in the series on human neutrophils is “reduction in free DNA similar to that of the PA-I8Sar control; also recorded: ability to inhibit NET formation”. On PD-1/PD-L1 interaction, the “inhibition of PD-1/PD-L1 inhibitory signaling (luminescence)” value is “did not show PD-1/PD-L1 inhibitory activity”. The “peptide level in plasma over time” value in series [2] is given as “increased binding was observed at early time points with diminished signal at later time points”. The “Caspase 3/7 levels” value in series [3] (eighth day) is “very low to undetectable levels of Caspase 3/7”. The “IL-2 signal at stimulation 2” value in series [3] (supernatant ELISA) is reported as “showed an IL-2 signal at stimulation 2”. In addition, in the series with complement activity, the “inhibition of complement activity in the hemolytic assay of rat plasma” value is “inhibition of complement activity”. For the same molecule, the “inhibitory activity in CTLA-4 blockade bioassay (luminescence)” value at CTLA-4 is on record as “showed inhibitory activity; also recorded: able to inhibit CTLA-4 mediated cell signaling”.

Take “IALILEP(Sar)CCQERAA (IALILEPXCCQERAA; sarcosine at position 8; MOD_RES (8)..(8) Sarcosine) [PA-0088, reference compound]”: the “reduction of free DNA” value with human neutrophils was “reduced the level of free DNA”. In addition, the “water solubility without PEGylation” value in series [4] is on record as “water soluble without PEGylation”.

Turning to “IALILEPI(Sar)CQERAA (IALILEPIXCQERAA; sarcosine at position 9; MOD_RES (9)..(9) Sarcosine) [PA-0089]”, the “water solubility without PEGylation” value in series [4] is on record as “water soluble without PEGylation”.

Source of the values: US20230272012A1, “PEPTIDES AND METHODS OF USE” (REALTA LIFE SCIENCES, INC., priority 2020, published 2023).
